Data as given in patent publication US20230017786A1, “DEXTR[…] A DISEASE-MODIFYING TREATMENT FOR NEUROPSYCHIATRIC DISORDERS AND DISEASES” (priority 2020, published 2023).
“And” between values parts separate entries of the source, which are not always exact repeats. Equal values may be shown once.

What was measured:
[1] = biological target: human GluN1-GluN2C NMDA receptor (Homo sapiens, UniProt Q05586+Q14957); assay: Manual patch clamp trapping assay, hGluN1/hGluN2C-CHO cells; conditions: test item 10 μM
healthy subjects = assay: Phase 1 SAD and MAD studies, safety and tolerability
[2] = biological target: T1, human NMDA receptor GluN1-GluN2B (Homo sapiens, UniProt Q05586+Q13224); assay: cell-based; type: cell-based
T1 construct: expressed in transfected cells; host or cells: CHO

[3] = test system: Western diet fed Sprague-Dawley rats, liver; assay: Western diet treated rats, hepatic inflammation, steatosis and lipid metabolism genes; conditions: 10 mg/kg, gastric gavage, 15 days
[4] = biological target: T1, human NMDA receptor GluN1-GluN2B; assay: FLIPR calcium assay, quinolinic acid, gentamicin, dextromethadone (Example 5 Part II), GluN1-GluN2B-CHO; type: cell-based; conditions: 10 μM glycine; for calcium response (mean±SEM): GluN2B, n=42
[5] = biological target: T2, recombinant human NMDAR GluN1 plus GluN2B (Homo sapiens, UniProt Q05586+Q13224); assay: FLIPR calcium assay, gentamicin as PAM (Example 5 Part I), GluN2B cell line; type: cell-based; conditions: 10 μM test item; dextromethadone in presence and absence of 10 μM gentamicin
T2 construct: expressed in transfected cells; host or cells: CHO
Source text: A FLIPR calcium assay was used to profile gentamicin using stable cell lines expressing diheteromeric recombinant human NMDARs, containing GluN1 plus one amongst GluN2A, GluN2B, GluN2C or GluN2D subunit.

T1 sequence (Q13224 27-1484, other chains not shown): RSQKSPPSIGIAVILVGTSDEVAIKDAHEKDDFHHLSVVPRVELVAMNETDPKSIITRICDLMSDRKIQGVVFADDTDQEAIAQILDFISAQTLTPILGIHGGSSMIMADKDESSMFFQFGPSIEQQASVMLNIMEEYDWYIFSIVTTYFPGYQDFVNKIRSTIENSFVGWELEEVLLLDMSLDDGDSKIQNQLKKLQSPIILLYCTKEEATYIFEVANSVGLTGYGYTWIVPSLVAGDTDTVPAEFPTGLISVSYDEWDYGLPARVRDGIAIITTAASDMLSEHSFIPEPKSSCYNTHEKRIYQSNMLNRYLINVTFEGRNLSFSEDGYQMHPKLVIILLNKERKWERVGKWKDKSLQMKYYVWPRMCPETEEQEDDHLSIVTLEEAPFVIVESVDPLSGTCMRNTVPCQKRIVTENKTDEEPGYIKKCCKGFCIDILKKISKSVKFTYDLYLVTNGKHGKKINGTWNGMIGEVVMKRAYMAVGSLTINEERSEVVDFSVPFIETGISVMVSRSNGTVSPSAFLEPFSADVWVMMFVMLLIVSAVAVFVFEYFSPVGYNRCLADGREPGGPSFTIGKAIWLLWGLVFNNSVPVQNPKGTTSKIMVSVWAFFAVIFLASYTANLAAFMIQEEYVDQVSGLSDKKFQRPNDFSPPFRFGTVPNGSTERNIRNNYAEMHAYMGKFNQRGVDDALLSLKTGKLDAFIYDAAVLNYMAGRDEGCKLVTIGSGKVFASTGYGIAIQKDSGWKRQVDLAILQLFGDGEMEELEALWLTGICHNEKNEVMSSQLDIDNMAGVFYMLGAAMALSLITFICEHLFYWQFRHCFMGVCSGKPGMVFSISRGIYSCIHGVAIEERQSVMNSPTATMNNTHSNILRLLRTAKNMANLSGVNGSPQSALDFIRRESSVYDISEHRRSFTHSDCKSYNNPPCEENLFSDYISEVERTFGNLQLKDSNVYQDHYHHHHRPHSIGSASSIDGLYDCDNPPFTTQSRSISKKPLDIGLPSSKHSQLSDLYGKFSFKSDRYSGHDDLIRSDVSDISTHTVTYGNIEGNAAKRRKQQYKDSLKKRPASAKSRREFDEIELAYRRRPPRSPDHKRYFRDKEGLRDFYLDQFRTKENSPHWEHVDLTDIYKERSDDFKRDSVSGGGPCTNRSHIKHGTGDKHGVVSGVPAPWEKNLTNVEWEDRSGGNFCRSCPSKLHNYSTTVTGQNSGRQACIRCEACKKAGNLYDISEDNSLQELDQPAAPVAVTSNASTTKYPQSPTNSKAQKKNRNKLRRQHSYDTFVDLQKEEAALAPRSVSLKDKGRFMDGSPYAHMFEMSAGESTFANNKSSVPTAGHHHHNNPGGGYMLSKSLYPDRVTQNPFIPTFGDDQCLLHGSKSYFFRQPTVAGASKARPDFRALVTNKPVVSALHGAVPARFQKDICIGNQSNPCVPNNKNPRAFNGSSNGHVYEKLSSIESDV
T2 sequence (Q13224 27-1484, other chains not shown): as above
human GluN1-GluN2C NMDA receptor, sequence (Q14957 20-1233, other chains not shown): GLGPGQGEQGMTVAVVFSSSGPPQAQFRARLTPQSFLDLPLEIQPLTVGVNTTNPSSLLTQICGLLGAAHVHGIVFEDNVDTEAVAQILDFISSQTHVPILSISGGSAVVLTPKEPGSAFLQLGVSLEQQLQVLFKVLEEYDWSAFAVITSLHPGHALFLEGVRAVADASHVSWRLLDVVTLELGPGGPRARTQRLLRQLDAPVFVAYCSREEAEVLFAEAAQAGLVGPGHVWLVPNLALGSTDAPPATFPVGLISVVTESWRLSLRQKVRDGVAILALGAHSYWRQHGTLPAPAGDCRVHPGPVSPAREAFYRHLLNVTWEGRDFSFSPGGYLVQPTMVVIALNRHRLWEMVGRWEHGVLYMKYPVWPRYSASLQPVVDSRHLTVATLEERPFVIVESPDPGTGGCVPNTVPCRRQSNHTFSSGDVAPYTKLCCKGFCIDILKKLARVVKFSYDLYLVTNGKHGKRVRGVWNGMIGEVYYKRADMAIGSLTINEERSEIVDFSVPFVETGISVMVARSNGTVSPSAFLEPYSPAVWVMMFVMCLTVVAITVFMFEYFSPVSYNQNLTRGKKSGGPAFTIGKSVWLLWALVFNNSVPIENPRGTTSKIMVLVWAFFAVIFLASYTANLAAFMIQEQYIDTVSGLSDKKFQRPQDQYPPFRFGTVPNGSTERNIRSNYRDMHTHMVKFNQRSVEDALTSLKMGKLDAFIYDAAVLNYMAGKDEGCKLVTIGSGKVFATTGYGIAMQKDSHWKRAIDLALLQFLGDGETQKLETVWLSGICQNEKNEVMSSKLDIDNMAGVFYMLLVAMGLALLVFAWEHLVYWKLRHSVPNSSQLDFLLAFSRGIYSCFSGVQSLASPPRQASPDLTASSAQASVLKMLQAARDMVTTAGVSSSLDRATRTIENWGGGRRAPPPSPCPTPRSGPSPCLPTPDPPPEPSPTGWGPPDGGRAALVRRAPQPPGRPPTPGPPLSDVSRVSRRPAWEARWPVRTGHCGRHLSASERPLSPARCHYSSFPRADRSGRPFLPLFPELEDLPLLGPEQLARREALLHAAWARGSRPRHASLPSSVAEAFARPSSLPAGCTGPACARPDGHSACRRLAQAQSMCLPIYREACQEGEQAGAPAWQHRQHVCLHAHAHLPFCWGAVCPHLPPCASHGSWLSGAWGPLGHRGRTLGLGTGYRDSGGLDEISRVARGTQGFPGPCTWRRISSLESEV

## CCC(=O)C(C[C@H](C)N(C)C)(c1ccccc1)c1ccccc1 [Dextromethadone, dextromethadone]
[1]
  Block trapped (BT), trapping: 85.9% and 85.9%±1.9%
[1]; listed as dextromethadone
  Block (B) of 10/10 μM L-glutamate/glycine-evoked currents: 83.8%±1.2% and 83.8%
  Block trapped (BT), trapping: 85.9% and 85.9%±1.9%
  Residual block (BR): 71.8%±1.1% and 71.8%
Healthy subjects; SAD and MAD
  QTcF changes from base-line: none of the changes were considered clinically significant
Healthy subjects; SAD and MAD, abrupt discontinuation
  respiratory depression, dissociative and psychotomimetic effects, withdrawal signs and symptoms: no evidence
Healthy subjects; single doses up to 150 mg and daily doses up to 75 mg for 10 days
  tolerability: well tolerated
[2]; operational analysis for allosteric modulators
  α, estimated cooperativity term: 0.26
[2]; with test item 49 nM
  L-glutamate CRC HillSlope: 1.2
  L-glutamate CRC LogEC50: −7.0
[2]; with test item 195 nM
  L-glutamate CRC HillSlope: 1.2
  L-glutamate CRC LogEC50: −6.9
[2]; with test item 781 nM
  L-glutamate CRC HillSlope: 1.2
  L-glutamate CRC LogEC50: −6.9
[2]; with test item 3.1 μM
  L-glutamate CRC HillSlope: 1.1
  L-glutamate CRC LogEC50: −6.9
[2]; with test item 12.5 μM
  L-glutamate CRC HillSlope: 1.3
  L-glutamate CRC LogEC50: −6.7
[2]; with test item 50 μM
  L-glutamate CRC HillSlope: 1.1
  L-glutamate CRC LogEC50: −6.4
[3]
  CCL2 gene expression in liver (qRT-PCR): didn't affect significantly this increase
  GPAT4 gene expression in liver (qRT-PCR): significant drop of their expression
  IL-6 gene expression in liver (qRT-PCR): able to counteract this effect
  IL-10 gene expression in liver (qRT-PCR): able to counteract this effect
  SREPB2 gene expression in liver (qRT-PCR): significant drop of their expression
  hepatic steatosis, histology: reduction of steatosis
[4]; 0.04 μM L-Glu + 10 μM DXT
  calcium response (mean±SEM): 0.2 ± 0.4
[4]; 0.04 μM L-Glu + 1000 μM QA + 10 μM DXT
  calcium response (mean±SEM): 13 ± 1.0
[4]; 0.2 μM L-Glu + 10 μM DXT
  calcium response (mean±SEM): 8.0 ± 0.5
[4]; 0.2 μM L-Glu + 100 μM QA + 10 μM DXT
  calcium response (mean±SEM): 9.9 ± 0.8
[4]; 0.2 μM L-Glu + 1000 μM QA + 10 μM DXT
  calcium response (mean±SEM): 13 ± 1.0
[4]; 100 μM QA + 10 μM DXT
  % effect on calcium entry, 100 QA + 10 DXT: −1.0 ± 0.8%
[4]; 1000 μM QA + 10 μM DXT
  calcium response (mean±SEM): 12 ± 0.7
  % effect on calcium entry, 1000 QA + 10 DXT: 12 ± 0.7%
[4]; 1000 μM QA + 10 μg/ml GENT + 10 μM DXT
  calcium response (mean±SEM): 21 ± 0.9
[4]; Table 41: 0.04 μM L-Glu + 10 μM DXT
  calcium response (mean±SEM): 0.2 ± 0.4
[4]; Table 43: 0.2 μM L-Glu + 10 μM DXT
  calcium response (mean±SEM): 8.0 ± 0.5
[5]
  calcium entry induced by 0.04 μM L-glutamate: significantly reduced
  calcium entry induced by 0.2 μM L-glutamate: significantly reduced
  calcium entry induced by 10 μM L-glutamate: significantly reduced
